In brackets after ≈: the same amount, converted by molar mass. Counter-ions that a name gives are not always drawn. Like-named read-outs stand apart in the source and are kept apart here.
Tests used:
[1] = system: M. tuberculosis H37Rv ∆1258c; assay: microbe, parasite or virus in culture; type: cell-based; conditions: Mycobacterium tuberculosis, 168 h
[2] = system: M. abscessus ATCC 19977 ∆2780c; assay: microbe, parasite or virus in culture; type: cell-based, Mycobacterium abscessus; conditions: Mycobacteroides abscessus, ATCC19977, 72 h, read-out: ∆2780c MIC
[3] = system: M. smegmatis strain MC^2 155; assay: MIC broth microdilution, M. smegmatis; type: cell-based, Mycobacterium smegmatis; conditions: Mycolicibacterium smegmatis, MC^2155, 72 h, read-out: WT MIC
[4] = target: T1, M. smegmatis ribosomes (strain SZ380) (Mycolicibacterium smegmatis, UniProt A0QSG6); assay: Mycobacterial cell-free translation inhibition assay; type: biochemical, Mycobacterium smegmatis
T1 construct: S30 extracts were prepared by addition of dithiothreitol (DTT) to 1 mM and centrifugation; endogenous in cells; host or cells: M. smegmatis strain SZ380, S30 cell extract
T1 sequence (A0QSG6 whole entry): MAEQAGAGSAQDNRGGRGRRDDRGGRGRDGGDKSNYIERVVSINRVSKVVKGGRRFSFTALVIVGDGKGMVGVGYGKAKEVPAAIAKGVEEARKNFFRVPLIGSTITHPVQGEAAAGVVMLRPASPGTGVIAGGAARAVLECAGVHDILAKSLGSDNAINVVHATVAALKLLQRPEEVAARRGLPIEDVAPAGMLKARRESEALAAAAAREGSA
Protocol: Mycobacterial cell-free translation inhibition assays were performed as described previously. In brief, M. smegmatis strain SZ380 bacterial cells were disrupted and emulsified with a microfluidizer processor (Microfluidics, Westwood, MA, USA) at 25,000 lb/in^2. S30 extracts were prepared by addition of dithiothreitol (DTT) to 1 mM and centrifugation at 30,000 × g at 4 °C. Translation reaction mixtures containing either test article or DMSO vehicle control and 4 μl of the S30 extract, 0.2 mM amino acid mix, 6 μg tRNA (Sigma), 0.4 μg hFluc mRNA, 0.3 μl protease inhibitor (complete, EDTA-free, Roche), 12 U RNAse inhibitor (Ribolock, Thermo Scientific), 6 μl S30 premix without amino acids (Promega), plus water to a final reaction volume of 15 μl were incubated for 1 h at 37 °C. The reaction was stopped on ice before adding 75 μl of luciferase assay reagent (Promega) and recording of luminescence. Regression analysis and IC50 calculations were performed using GraphPad Prism version 9.3.1 by using the equation [log(inhibitor) vs. response–Variable slope (four parameters)] with the fitting method: least squares (ordinary) fit. Y = Bottom + (Top-Bottom)/(1 + 10^((X-LogIC50))).

E. faecalis ATCC 29212 = assay: MIC broth microdilution, E. faecalis; type: cell-based; conditions: Enterococcus faecalis
E. faecium ATCC 19434 = assay: MIC broth microdilution, E. faecium; type: cell-based; conditions: Enterococcus faecium
S. aureus USA300 = assay: MIC broth microdilution, S. aureus; type: cell-based; conditions: Staphylococcus aureus, USA300, read-out: Minimum Inhibitory Concentration
[5] = system: S. epidermidis ATCC 14990; assay: MIC broth microdilution, S. epidermidis; type: cell-based; conditions: Staphylococcus epidermidis, ATCC14990, read-out: Minimum Inhibitory Concentration
S. pneumoniae R6 = assay: MIC broth microdilution, S. pneumoniae; type: cell-based; conditions: Streptococcus pneumoniae, read-out: Minimum Inhibitory Concentration
S. pyogenes ATCC 700294 = assay: MIC broth microdilution, S. pyogenes; type: cell-based; conditions: Streptococcus pyogenes
A. baumannii ATCC 19606 = assay: MIC broth microdilution, A. baumannii; type: cell-based, Acinetobacter baumannii; conditions: Acinetobacter baumannii
[6] = system: K. pneumoniae ATCC 700603; assay: MIC broth microdilution, K. pneumoniae; type: cell-based, Klebsiella pneumoniae; conditions: Klebsiella pneumoniae, ATCC700603, read-out: Minimum Inhibitory Concentration
P. aeruginosa ATCC 15692 = assay: MIC broth microdilution, P. aeruginosa; type: cell-based, Pseudomonas aeruginosa; conditions: Pseudomonas aeruginosa
E. coli K12 ∆tolC = assay: microbe, parasite or virus in culture; type: cell-based; conditions: Escherichia coli, read-out: Minimum Inhibitory Concentration
M. tuberculosis H37Rv [7] = system: M. tuberculosis H37Rv
M. abscessus ATCC 19977 [8] = system: M. abscessus ATCC 19977
E. coli K12 [9] = conditions: E. coli K12 MIC versus K12 ∆tolC MIC
M. tuberculosis H37Rv [10] = assay: microbe, parasite or virus in culture; conditions: Mycobacterium tuberculosis, 168 h, read-out: WT MIC
M. abscessus ATCC 19977 [11] = assay: microbe, parasite or virus in culture; conditions: Mycobacteroides abscessus, ATCC19977, 72 h, read-out: WT MIC
E. coli K12 [12] = assay: microbe, parasite or virus in culture; conditions: Escherichia coli, K12, read-out: Minimum Inhibitory Concentration
[13] = target: T1, M. smegmatis ribosomes (strain SZ380)
[14] = cell-free translation, M. smegmatis SZ380 S30 extract, luciferase readout, read-out: Ribo. IC50
[15] = ATCC29212, read-out: Minimum Inhibitory Concentration
[16] = ATCC19434, read-out: Minimum Inhibitory Concentration
[17] = ATCC700294, read-out: Minimum Inhibitory Concentration
[18] = ATCC19606, read-out: Minimum Inhibitory Concentration
[19] = ATCC15692, read-out: Minimum Inhibitory Concentration
[20] = previously reported; read-out: Ribo. IC50; cited from earlier work

| Compound | MIC [1] [µg/mL] | MIC [2] [µg/mL] | MIC [3] [µg/mL] | IC50 [4, 14] [nM] | MIC (E. faecalis ATCC 29212; [15]) [µg/mL] | MIC (E. faecium ATCC 19434; [16]) [µg/mL] | MIC (S. aureus USA300) [µg/mL] | MIC [5] [µg/mL] | MIC (S. pneumoniae R6) [µg/mL] | MIC (S. pyogenes ATCC 700294; [17]) [µg/mL] | MIC (A. baumannii ATCC 19606; [18]) [µg/mL] | MIC [6] [µg/mL] | MIC (P. aeruginosa ATCC 15692; [19]) [µg/mL] | MIC (E. coli K12 ∆tolC) [µg/mL] | Efflux Ratio (M. tuberculosis H37Rv [7]) | Efflux Ratio (M. abscessus ATCC 19977 [8]) | E. coli Efflux Ratio (E. coli K12 [9]) | MIC (M. tuberculosis H37Rv [10]) [µg/mL] | MIC (M. abscessus ATCC 19977 [11]) [µg/mL] | MIC (E. coli K12 [12]) [µg/mL] | other results |
| --- | --- | --- | --- | --- | --- | --- | --- | --- | --- | --- | --- | --- | --- | --- | --- | --- | --- | --- | --- | --- | --- |
| CCCCC1CC(O)(CN)C2(O)OC3C(NC)C(O)C(NC)C(O)C3OC2O1 [AmTroSPC (13), 3’-(R)-Aminomethyl-6’-propyl-dihydrospectinomycin] | 8 (≈ 19.7 µM) | 64 (≈ 158 µM) | 128 (≈ 316 µM) | 2710 | > 64 | > 64 | > 64 | > 64 | 16 to 32 (≈ 39.5 to 78.9 µM) | 16 (≈ 39.5 µM) | > 64 | > 64 | > 64 | 32 (≈ 78.9 µM) | 8 | 1 | >2 | 64 (≈ 158 µM) | 64 (≈ 158 µM) | > 64 |  |
| CCCC[C@@H]1C[C@@H](N)[C@]2(O)O[C@@H]3[C@@H](NC)[C@@H](O)[C@@H](NC)[C@H](O)[C@H]3O[C@@H]2O1 [Amino TroSPC (11), 3’-(R)-Amino-3’-deoxy-6’-propyl-dihydrospectinomycin trihydrochloride] | 2 | 64 | 32 | 640 | > 64 | > 64 | > 64 | > 64 | 64 | 32 | > 64 | > 64 | > 64 | 32 | 8 | 1 | >2 | 16 | 64 | > 64 |  |
| CN[C@@H]1[C@H](O)[C@H](NC)[C@H]2O[C@]3(O)[C@H](O[C@@H]2[C@H]1O)O[C@H](C)C[C@H]3NC(=O)Cc1ccccn1 [SPA (3), reference compound] | 4 (≈ 8.84 µM) |  |  |  |  |  |  |  |  |  |  |  |  |  |  | 4 |  | 2 (≈ 4.42 µM) |  |  | IC50 ([13]; converted from µg/mL to µM from what was previously reported; read-out: Ribo. IC50; cited from earlier work): 1.8 µM |
| CN[C@@H]1[C@H](O)[C@H](NC)[C@H]2O[C@@]3(O)C(=O)C[C@@H](C)O[C@H]3O[C@@H]2[C@H]1O [SPC (1), spectinomycin] | 4 (≈ 12 µM) | 16 (≈ 48.1 µM) |  |  |  |  | 512 (≈ 1540 µM) | 256 to 512 (≈ 770 to 1540 µM) | 16 (≈ 48.1 µM) |  |  | 512 (≈ 1540 µM) |  | 64 (≈ 193 µM) | 16 | 32 | 2 | 64 (≈ 193 µM) | 512 (≈ 1540 µM) | 128 (≈ 385 µM) | MIC ([3]; M. smegmatis strain MC^2 155, 3 days): 64 µg/mL (≈ 193 µM); MIC (E. faecalis ATCC 29212; ATCC29212, E. faecalis ATCC 29212, read-out: Minimum Inhibitory Concentration): 256 µg/mL (≈ 770 µM); MIC (E. faecium ATCC 19434; ATCC19434, E. faecium ATCC 19434, read-out: Minimum Inhibitory Concentration): 256 µg/mL (≈ 770 µM); MIC (S. pyogenes ATCC 700294; ATCC700294, S. pyogenes ATCC 700294, read-out: Minimum Inhibitory Concentration): 32 µg/mL (≈ 96.3 µM); MIC (A. baumannii ATCC 19606; ATCC19606, A. baumannii ATCC 19606, read-out: Minimum Inhibitory Concentration): > 1020 µg/mL; MIC (P. aeruginosa ATCC 15692; ATCC15692, P. aeruginosa ATCC 15692, read-out: Minimum Inhibitory Concentration): 1020 µg/mL (≈ 3080 µM); IC50 ([13]; read-out: Ribo. IC50; previously reported; cited from earlier work): 0.8 µM |
| CCCC[C@@H]1C[C@@H](NC(=O)Cc2ccccn2)[C@]2(O)O[C@@H]3[C@@H](NC)[C@@H](O)[C@@H](NC)[C@H](O)[C@H]3O[C@@H]2O1 [TroSPA (4), 3′-Deoxy-3′(R)-[(pyridin-2-yl)acetylamino]-6’-propyl-dihydrospectinomycin dihydrochloride] | 1 | 16 | 32 |  | > 64 | > 64 | > 64 | > 64 | 16 | 8 | > 64 | > 64 | > 64 | 32 | 2 | 4 | >2 | 2 | 64 | > 64 | IC50 [4]: 2450 nM |
| CN[C@@H]1[C@H](O)[C@H](NC)[C@H]2O[C@]3(O)[C@H](O[C@@H]2[C@H]1O)O[C@H](C)C[C@@]3(O)CNCc1ccc(F)cc1 [bAmSPC (5), reference compound] | 2 (≈ 4.24 µM) | 8 (≈ 17 µM) |  |  |  |  |  |  |  |  |  |  |  |  | 8 | 16 |  | 16 (≈ 33.9 µM) | 128 (≈ 271 µM) |  | IC50 [13, 20]: 1.18 µM |
| CCCCC1CC(O)(CNCc2ccc(F)cc2)C2(O)OC3C(NC)C(O)C(NC)C(O)C3OC2O1 [bAmTroSPC (6), 3′(R)-[(4-Fluorobenzyl)aminomethyl]-6’-propyl-dihydrospectinomycin trihydrochloride] | 1 | 64 | 64 | 2490 | 32 | 32 | 64 | 16 | 4 | 2 | > 64 | > 64 | > 64 | 4 to 8 | 8 | 1 | 4–8 | 8 | 64 | 32 |  |
| CN[C@@H]1[C@H](O)[C@H](NC)[C@H]2O[C@]3(O)[C@H](O[C@@H]2[C@H]1O)O[C@H](C)C[C@@]3(O)CNCCc1ccc(F)cc1 [eAmSPC (7), reference compound] | 0.5 (≈ 1.03 µM) | 1 (≈ 2.06 µM) | 4 (≈ 8.24 µM) |  |  |  |  |  |  |  |  |  |  |  | 4 | 4 |  | 2 (≈ 4.12 µM) | 4 (≈ 8.24 µM) |  | IC50 [13, 20]: 1.01 µM |
| CCCCC1CC(O)(CNCCc2ccc(F)cc2)C2(O)OC3C(NC)C(O)C(NC)C(O)C3OC2O1 [eAmTroSPC (8), 3′(R)-[(4-Fluorophenylethyl)aminomethyl]-6’-propyl-dihydrospectinomycin trihydrochloride] | 0.25 | 8 | 8 |  | 32 | 32 | 64 | 8 | 8 | 4 | > 64 | > 64 | > 64 | 4 to 8 | 8 | 1 | 8–16 | 2 | 8 | 64 | IC50 [4]: 2310 nM |

From PMC11347369, “Synthesis and antibacterial action of 3’,6’-disubstituted spectinomycins” (The Journal of Antibiotics, 2024)
